According to patent publication EP1353939B1, “TETRAPEPTIDE REGULATING PROSTATE FUNCTIONS AND ITS COMPOSITIONS AND USES” (Sankt-Peterburgskaya Obschestvennaya Organizatsia …, priority 2001, dated 2004):
Read-outs that look alike come from different tables or passages of the source. Marks after values point to notes of the source that are not given here.

Key:
[1] = test system: processes of free radical oxidation; details: 0.1 µg per injection s.c. for 10 days
Procedure: The animals were subcutaneously administered with 0.1 µg of the tetrapeptide per injection for 10 days. The controls were similarly injected with 0.9 % natural saline solution. The rats were euthanasised on the next day after the last introduction of the tetrapeptide.
Afterwards, samples of the brain and liver tissues and blood serum were prepared and peroxide lipid oxidation (PLO) intensity in them was studied by the content of diene conjugates and Schiff's bases. The activity of glutathione peroxidase and superoxide dismutase was defined as well by the method of suppressing nitroblue tetrasolium oxidation with biological material.

[2] = test system: chronic bacterial prostatitis
Procedure: The investigation was performed on 41 white mongrel male rats weighing on average 230 g. Bacterial prostatitis was induced in the rats by transurethral introduction of enterotoxigenic E.coli suspension K-2935 (01: K1: H-). A glycerine-lubricated catheter was inserted into the animals' urethra under a light ether narcosis after treating the external urethra opening with 70 % alcohol. 0.2 ml of bacterial suspension (10^9 colony-forming units per ml) was instilled via catheter with a syringe. Control animals were injected with 0.2 ml of 0.9 % natural saline solution through the catheter. […] The injections were performed daily for 10 days. The control groups included intact animals, animals with untreated chronic prostatitis and those treated with injections of 0.9 % natural saline solution applied by the same plan.
All the rats were euthanasised by decapitation on the 70th day of the experiment. The animals were subjected to complete autopsy. Their testes and epididymes, prostate, seminal vesicles, bulbourethral glands, urinary bladder, kidneys with ureters and other intrinsic organs were examined. For histology the ventral segment of the prostate was fixed in 10 % neutral formalin and - after a standard processing with a series of solvents - embedded in paraffin. 5-7-µm thin tissue sections were stained with haematoxylin-eosin.
The degree of prostatitis manifestation throughout the groups was assessed according to the below 5-point scale: • 1 point - traces of prostatitis (small foci of fibrosis, interstitial lymphocytic and histiocytic infiltration); • 2 points - foci of chronic prostatitis with inflammatory infiltration (basically, interstitial one) occupying less than ¼ of the gland section; • 3 points - prostatitis foci with large inflammatory infiltrates surrounding the ducts, acini and blood vessels, with leukocytic conglomerations in the glandular lumens, embracing ¼ - ½ of the gland section; • 4 points - expressed prostatitis covering ½ - ¾ of the gland section; • 5 points - strongly expressed prostatitis affecting over ¾ of the gland section.
The prostate sites were also used for electron microscopic examination and tests on the content of zinc, which makes a part of compositions with anti-microbial activity.

[3] = test system: urinary bladder explants; details: 20 ng/ml, third day of cultivation
Procedure: The experiments were carried out in 45 urinary bladder fragments of 10-11-days old chicken embryos. The nutrient medium for the explant cultivation included 35 % of Eagle's solution, 25 % of foetal calf serum, 35 % of Hanks' solution, 5 % of chicken embryonic extract and was added glucose (0.6 %), insulin (0.5 unit/ml), penicillin (100 unit/ml) and glutamine (2 mM). The urinary bladder fragments were placed in this medium and cultivated in Petri's dishes in a thermostat at 36.7°C for 48 hours. […] Square index (SI) was taken for a biological activity criterion and calculated as a correlation of the total explant square (including the growth zone) to the initial square of a urinary bladder fragment. The SI values were expressed per cent, the control SI value - taken for 100 %.

For “lysyl-glutamyl-aspartyl-proline [Lys-Glu-Asp-Pro tetrapeptide]”, the Diene conjugates ([1]; Blood serum) was 5.28 ± 0.33 nmol/mL, the Glutathione peroxidase ([1]; Blood serum) was 2.85 ± 0.06 mmol of GlSH/min/mg of protein and the “Schiff's bases” value ([1]; Blood serum) was 17.40 ± 1.54 conv. unit/ml. The Superoxide dismutase ([1]; Blood serum) was 0.826 ± 0.060 conv. unit/mg of protein, the Diene conjugates ([1]; Brain) was 46.14 ± 2.91 mnol/ml and the Glutathione peroxidase ([1]; Brain) was 50.7±0.2 mmole of GlSH/min/mg of protein. For the same substance, the “Schiff's bases” value ([1]; Brain) was 237.3 ± 17.8 conv. unit/ml, the Superoxide dismutase ([1]; Brain) was 26.7 ± 3.0 conv. unit/mg of protein and the Diene conjugates ([1]; Liver) was 44.76 ± 2.48 nmol/mL. The Glutathione peroxidase ([1]; Liver) was 798.0±29.1 mmol of GlSH/min/mg of protein, the “Schiff's bases” value ([1]; Liver) was 556.5 ±37.6 conv. unit/ml and the Superoxide dismutase ([1]; Liver) was 54.1 ± 7.9 conv. unit/mg of protein. The “positive dynamics of inflammatory processes in the prostate” value ([2]; 0.1 µg per injection s.c. daily for 10 days) was 7 cases out of 11, the “Degree of prostatitis in points Per rat in the group” value ([2]; 0.1 µg per injection s.c. daily for 10 days, from day 45 after infection, 5-point scale) was 1.81 ± 0.09 points and the “Degree of prostatitis in points Per prostatitis-affected rat” value ([2]; 0.1 µg per injection s.c. daily for 10 days, 5-point scale) was 2.86* points. For the same substance, the “mean concentration of zinc in the prostate tissue” value ([2]; after application of the tetrapeptide (Figure 2)) was “decreased”, the “Number of rats in the group Prostatitis -affected” value ([2]; of 11 rats in total, 0.1 µg per injection s.c. daily for 10 days) was 7 and the “increase in the explant SI as compared to the control value” [3] was 23%.
